What was measured:
[1] = target: human lysosomal α-glucosidase (Homo sapiens, UniProt P10253); test: α-glucosidase inhibitory activity assay; type: biochemical; details: 1.43 mM compound; lysosomal α-glucosidase extracts; pH 4.0, 37 °C
α-glucosidase = details: previously reported; cited from earlier work

Molecule	α-glucosidase inhibition (%) [1] [%]	IC50 (α-glucosidase) [µM]
1-(α-D-Glucopyranosyl)-4-nitro-phenyl-[1,2,3]-triazole [AGT5]	57	–
O=c1cc(-c2ccccc2)oc2cc(O)cc(O)c12 [chrysin]	–	77
1-(α-D-Glucopyranosyl)-4-cyano-phenyl-[1,2,3]-triazole [AGT3]	46	–
